Values quoted from earlier work, collected in patent US11826492B2, “Intratumoral drug delivery materials and methods for treating breast cancer” (BIOTRONIK AG, priority 2016, dated 2023).
Where two headings read alike, the source gives them in different places.

Settings: Porcine Coronary Arteries

| Normalized Uptake (ng drug/mg tissue/μg drug on balloon) (3 days) [ng/mg/µg] | Normalized Uptake (ng drug/mg tissue/μg drug on balloon) (7 days) [ng/mg/µg] | SMILES |
| --- | --- | --- |
| 0.02 |  | CO[C@H]1C[C@@H]2CC[C@@H](C)[C@@](O)(O2)C(=O)C(=O)N2CCCC[C@H]2C(=O)O[C@H]([C@H](C)C[C@@H]2CC[C@@H](OCCO)[C@H](OC)C2)CC(=O)[C@H](C)/C=C(\C)[C@@H](O)[C@@H](OC)C(=O)[C@H](C)C[C@H](C)/C=C/C=C/C=C/1C [US 2014/0046254 Everolimus, Everolimus] |
|  | 0.04 | CO[C@H]1C[C@@H]2CC[C@@H](C)[C@@](O)(O2)C(=O)C(=O)N2CCCC[C@H]2C(=O)O[C@H]([C@H](C)C[C@@H]2CC[C@H](n3cnnn3)[C@H](OC)C2)CC(=O)[C@H](C)/C=C(\C)[C@@H](O)[C@@H](OC)C(=O)[C@H](C)C[C@H](C)/C=C/C=C/C=C/1C [US 2014/0046254 Zotarolimus, Zotarolimus] |
